In series [1] the test system is murine bone marrow stern cells, colony-forming units/granulocytes-macrophages (CFU-GM). The series is described as follows: CFU-GM assay, in vitro cytotoxicity / bone marrow toxicity. The settings on record: for IC50: Mus musculus, in vitro. The class given is cell-based. How it is done:
(§1) The cytostatic/cytotoxic compound Doxorubicin was also included as reference substance. All compounds were tested in 3-6 different experiments concentration dependently with,at least, doublicate or triplicate inclubations per concentration tested.
(§2) For assay conditions, please refer to description of Example 7.

In series [2] the test system is murine bone marrow stern cells, colony-forming units/erythrocytes (CFU-E). Kind of series: CFU-E assay, in vitro cytotoxicity / bone marrow toxicity. The class given is cell-based. The following applies: for IC50: Mus musculus, Erythrocyte. Here is the method: as §1, §2
In the next series the test system is L 1210 leukemia. The series is described as follows: Influence on the L 1210 leukemia in vivo: survival time. Set-up: species or system mice.
[3] abbreviates: CFU-GM, mean ± SEM, Example 7, read-out: IC50 CFU-GM.
Setting [4] is: in vitro, mean ± SEM, Example 7, read-out: IC50 CFU-E.
Setting [5] is: CFU-GM, mean, Example 10, read-out: Bone marrow toxicity CFU-GM, mean IC50.
Setting [6] is: in vitro, mean, Example 10, read-out: Bone marrow toxicity CFU-E, mean IC50.
The mark [7] stands for this setting: 5-FU-DMDOPE compared to 5-FU, table.

The record followed here is US6025343A, “Lipid esters of nucleoside monophosphates and their use as immunosuppressive drugs” (Roche Diagnostics GmbH, priority 1994, dated 2000).

SMILES strings stand for the structures. Where two headings read alike, the source gives them in different places.

Method for L 1210 leukemia: Mice were inoculated with L 1210 leukemia cells on day 0 (n=10 animals/group) and w ere then treated once daily i.p. from day 0 (+1 h)-day +41 (6 weeks) with the weekly cycles indicated on FIGS. 1 and 2, respectively.

In general, IC50 refers to the concentration needed to halve the response being measured. On to `Sc1ncnc2nc[nH]c12` [6-Mercaptopurine, reference compound], for which the values for the IC50 in series [1] (setting [3]) and in series [2] (setting [4]) were 2.3 ng/mL and 0.3 ng/mL, respectively.

Take `OC[C@H]1O[C@@H](n2cnc3c(S)ncnc32)[C@H](O)[C@@H]1O` [6-Mercaptopurinriboside, reference compound]: the IC50 in series [1] (setting [3]) came out at 2.3 ng/mL; in series [2] (setting [4]) it was 0.3 ng/mL.

On to `COc1cccc2c1C(=O)c1c(O)c3c(c(O)c1C2=O)C[C@@](O)(C(=O)CO)C[C@@H]3O[C@H]1C[C@H](N)[C@H](O)[C@H](C)O1` [Doxorubicin, reference compound], for which the IC50 in series [1] (setting [3]) was found to be 50 ng/mL; in series [2] (setting [4]) it was 1.7 ng/mL.

Consider `O=c1[nH]c(=O)n([C@@H]2O[C@H](CO)[C@@H](O)[C@H]2O)cc1F` [Example 5-FU, 5-Fluorouridine, reference compound], for which the IC50 came to 4.96 nM in series [1] (setting [5]) and 0.61 nM in series [2] (setting [6]). In the series on L 1210 leukemia (i.p. once daily, weekly cycles, day 0 (+1 h)-day +41, FIG. 2), the dose-efficacy profile result is given as “very narrow dose-efficacy profile”. Further, in the series on L 1210 leukemia (i.p., from 2×10/5×0.1 to 2×10/5×0.3 mg kg^-1 day^-1 or even higher doses, FIG. 2), the “survival rates on increasing the dose” value is given as “reduced survival rates”.

As for `CCCCCCCCCCCCSCC(COP(=O)(O)OC[C@H]1O[C@@H](n2cc(F)c(=O)[nH]c2=O)[C@H](O)[C@@H]1O)OCCCCCCCCCC` (some centres unmarked) [Example 5-FU-DMDOPE, (5-Fluorouridine) -5'-phosphoric acid (3-dodecylmercapto 2 decyloxy) propyl ester], the “Bone marrow toxicity CFU-GM, ratio to 5-FU” value in series [1] (setting [7]) is reported as 238 ×. The “less toxic on granulocyte/macrophage bone marrow stem cells compared to 5-FU” value in series [1] (CFU-GM) is on record as 238 times. Further, the IC50 amounted to 1180 nM in series [1] (setting [5]) and 372 nM in series [2] (setting [6]). Also, in the series on L 1210 leukemia (concluded from efficacy (FIGS. 1 and 2) and bone marrow toxicity), the “therapeutic index/ratio compared to 5-FU” value was “much higher therapeutic index/ratio”. Also, in the series with L 1210 leukemia (i.p. once daily, weekly cycles, day 0 (+1 h)-day +41, FIG. 1), the “survival time compared to control I and II” value is “clear dose-dependent increase in survival time”. Moreover, the “efficacy compared to 5-FU” value in the series with L 1210 leukemia (leukemia model, equimolar doses, FIGS. 1 and 2) was “clearly more effective”. For the same compound, in series [2] (setting [7]), the “Bone marrow toxicity CFU-E, ratio to 5-FU” value was found to be 610 ×. Further, the “less toxic on erythrocyte bone marrow stem cells compared to 5-FU” value in series [2] (CFU-E) was 610 times. Besides, in series [2] (in words, CFU-E and CFU-GM), the “toxicity on bone marrow cells compared to 5-FU” value is listed as “much less toxic on bone marrow cells”.

For the compound `CCCCCCCCCCCCSCC(COP(=O)(O)OC[C@H]1O[C@@H](n2cnc3c(S)ncnc32)[C@H](O)[C@@H]1O)OCCCCCCCCCC` (stereo partly drawn) [Example 6-MPR-DMDOPE, (6-Mercaptopurine-9-β-D-ribofuranoside)-5'-phosphoric acid (3-dodecylmercapto-2-decyloxy) propyl ester], the figures for the IC50 in series [1] (setting [3]) and in series [2] (setting [4]) were 247 ng/mL and 56 ng/mL, respectively. Also, in series [2] (in vitro, CFU-E and CFU-GM, compared to Azathioprine, 6-MP, 6-Mercaptopurinriboside, Doxorubicin), the “tolerability by bone marrow stem cells” value is listed as “much better tolerated by the bone marrow stern cells compared to all other compounds tested”.
